Numbers after ± are expanded uncertainties.
Experiment: xn = mol fraction of the nth substance listed
Conditions: 298.15 K, 92.3 kPa, Liquid; for viscosity: Concentric cylinders viscometry; for speed of sound: Frequency=3 MHz, Single path-length method; for mass density: Vibrating tube method

With `OCCOCCOCCO` [triethylene glycol] + O the viscosity (x1 = 0.025) was 1.524 ± 0.21 mPa·s, the viscosity (x1 = 0.0489) was 2.329 ± 0.33 mPa·s and the viscosity (x1 = 0.0754) was 3.456 ± 0.48 mPa·s. It also gave a viscosity (x1 = 0.0993) of 4.677 ± 0.66 mPa·s, a viscosity (x1 = 0.15) of 7.813 ± 1.1 mPa·s and a viscosity (x1 = 0.1993) of 11.2 ± 1.6 mPa·s. It also gave a viscosity (x1 = 0.2526) of 14.94 ± 2.1 mPa·s, a viscosity (x1 = 0.2998) of 18.09 ± 2.5 mPa·s and a viscosity (x1 = 0.3539) of 21.31 ± 3 mPa·s. For the same molecule, the viscosity (x1 = 0.4009) was 23.85 ± 3.3 mPa·s, the viscosity (x1 = 0.4492) was 26.05 ± 3.6 mPa·s and the viscosity (x1 = 0.4992) was 28.01 ± 3.9 mPa·s. For the same molecule, the viscosity (x1 = 0.5484) was 29.68 ± 4.2 mPa·s, the viscosity (x1 = 0.5996) was 31.06 ± 4.4 mPa·s and the viscosity (x1 = 0.6506) was 32.21 ± 4.5 mPa·s. It also gave a viscosity (x1 = 0.701) of 33.32 ± 4.7 mPa·s, a viscosity (x1 = 0.7567) of 34.32 ± 4.8 mPa·s and a viscosity (x1 = 0.8035) of 34.99 ± 4.9 mPa·s. It also gave a viscosity (x1 = 0.8406) of 35.51 ± 5 mPa·s, a viscosity (x1 = 0.8981) of 35.95 ± 5 mPa·s and a viscosity (x1 = 0.9489) of 36.46 ± 5.1 mPa·s. The viscosity (x1 = 1) was 36.88 ± 5.2 mPa·s, the speed of sound (x1 = 0.0101) was 1537.4 ± 1.8 m/s and the speed of sound (x1 = 0.0196) was 1571 ± 1.8 m/s. The speed of sound (x1 = 0.029) was 1600.5 ± 1.8 m/s, the speed of sound (x1 = 0.0381) was 1625 ± 1.8 m/s and the speed of sound (x1 = 0.0496) was 1651.4 ± 1.8 m/s. It also gave a speed of sound (x1 = 0.0601) of 1671.4 ± 1.8 m/s, a speed of sound (x1 = 0.0689) of 1685.1 ± 1.8 m/s and a speed of sound (x1 = 0.0801) of 1699.4 ± 1.8 m/s. It also gave a speed of sound (x1 = 0.0905) of 1709.8 ± 1.8 m/s, a speed of sound (x1 = 0.0996) of 1716.9 ± 1.8 m/s and a speed of sound (x1 = 0.1479) of 1733.4 ± 1.8 m/s. The speed of sound (x1 = 0.2004) was 1729.3 ± 1.8 m/s, the speed of sound (x1 = 0.2462) was 1718.8 ± 1.8 m/s and the speed of sound (x1 = 0.3004) was 1704.4 ± 1.8 m/s. The speed of sound (x1 = 0.3474) was 1692.1 ± 1.8 m/s, the speed of sound (x1 = 0.3948) was 1680.7 ± 1.9 m/s and the speed of sound (x1 = 0.4467) was 1669.6 ± 1.9 m/s. The speed of sound (x1 = 0.5021) was 1659.2 ± 1.9 m/s, the speed of sound (x1 = 0.548) was 1651.9 ± 1.9 m/s and the speed of sound (x1 = 0.5923) was 1645.4 ± 1.9 m/s. The speed of sound (x1 = 0.6442) was 1639.1 ± 1.9 m/s, the speed of sound (x1 = 0.7095) was 1632.3 ± 1.9 m/s and the speed of sound (x1 = 0.7531) was 1628.1 ± 1.9 m/s. The speed of sound (x1 = 0.7859) was 1625.3 ± 2 m/s, the speed of sound (x1 = 0.8387) was 1621.5 ± 2 m/s and the speed of sound (x1 = 0.9031) was 1617 ± 2 m/s. It also gave a speed of sound (x1 = 0.9181) of 1616.2 ± 2 m/s, a speed of sound (x1 = 0.9344) of 1615.4 ± 2 m/s and a speed of sound (x1 = 0.9569) of 1614.1 ± 2 m/s. For the same molecule, the speed of sound (x1 = 0.9782) was 1612.9 ± 2 m/s, the speed of sound (x1 = 1) was 1611.6 ± 2 m/s and the mass density (x1 = 0.0101) was 1008.38 ± 3.2 kg/m3. It also gave a mass density (x1 = 0.0196) of 1017.88 ± 3.2 kg/m3, a mass density (x1 = 0.025) of 1023.1 ± 3.2 kg/m3 and a mass density (x1 = 0.029) of 1027.04 ± 3.2 kg/m3. It also gave a mass density (x1 = 0.0381) of 1034.7 ± 3.2 kg/m3, a mass density (x1 = 0.0489) of 1042.58 ± 3.3 kg/m3 and a mass density (x1 = 0.0496) of 1043.48 ± 3.3 kg/m3. The mass density (x1 = 0.0601) was 1050.7 ± 3.3 kg/m3, the mass density (x1 = 0.0689) was 1056.05 ± 3.3 kg/m3 and the mass density (x1 = 0.0754) was 1059.51 ± 3.3 kg/m3. For the same molecule, the mass density (x1 = 0.0801) was 1062.2 ± 3.3 kg/m3, the mass density (x1 = 0.0905) was 1067.29 ± 3.3 kg/m3 and the mass density (x1 = 0.0993) was 1071.33 ± 3.3 kg/m3. For the same molecule, the mass density (x1 = 0.0996) was 1071.33 ± 3.3 kg/m3, the mass density (x1 = 0.1479) was 1087.21 ± 3.3 kg/m3 and the mass density (x1 = 0.15) was 1088.51 ± 3.3 kg/m3. For the same molecule, the mass density (x1 = 0.1993) was 1098.18 ± 3.3 kg/m3, the mass density (x1 = 0.2004) was 1097.63 ± 3.3 kg/m3 and the mass density (x1 = 0.2462) was 1103.39 ± 3.3 kg/m3. It also gave a mass density (x1 = 0.2526) of 1104.19 ± 3.3 kg/m3, a mass density (x1 = 0.2998) of 1107.47 ± 3.3 kg/m3 and a mass density (x1 = 0.3004) of 1107.79 ± 3.3 kg/m3. For the same molecule, the mass density (x1 = 0.3474) was 1110.41 ± 3.3 kg/m3, the mass density (x1 = 0.3539) was 1110.13 ± 3.3 kg/m3 and the mass density (x1 = 0.3948) was 1112.33 ± 3.3 kg/m3. For the same molecule, the mass density (x1 = 0.4009) was 1112.01 ± 3.3 kg/m3, the mass density (x1 = 0.4467) was 1113.88 ± 3.3 kg/m3 and the mass density (x1 = 0.4492) was 1113.7 ± 3.3 kg/m3. The mass density (x1 = 0.4992) was 1115.2 ± 3.3 kg/m3, the mass density (x1 = 0.5021) was 1115.13 ± 3.3 kg/m3 and the mass density (x1 = 0.548) was 1115.93 ± 3.3 kg/m3. For the same molecule, the mass density (x1 = 0.5484) was 1116.36 ± 3.3 kg/m3, the mass density (x1 = 0.5923) was 1116.59 ± 3.3 kg/m3 and the mass density (x1 = 0.5996) was 1117.17 ± 3.3 kg/m3. The mass density (x1 = 0.6442) was 1117.19 ± 3.3 kg/m3, the mass density (x1 = 0.6506) was 1117.6 ± 3.3 kg/m3 and the mass density (x1 = 0.701) was 1117.76 ± 3.3 kg/m3. For the same molecule, the mass density (x1 = 0.7095) was 1117.81 ± 3.3 kg/m3, the mass density (x1 = 0.7531) was 1118.17 ± 3.3 kg/m3 and the mass density (x1 = 0.7567) was 1117.85 ± 3.3 kg/m3. For the same molecule, the mass density (x1 = 0.7859) was 1118.42 ± 3.3 kg/m3, the mass density (x1 = 0.8035) was 1118.05 ± 3.3 kg/m3 and the mass density (x1 = 0.8387) was 1118.75 ± 3.3 kg/m3. The mass density (x1 = 0.8406) was 1118.38 ± 3.3 kg/m3, the mass density (x1 = 0.8981) was 1119.14 ± 3.3 kg/m3 and the mass density (x1 = 0.9031) was 1119.13 ± 3.3 kg/m3. The mass density (x1 = 0.9181) was 1119.2 ± 3.3 kg/m3, the mass density (x1 = 0.9344) was 1119.28 ± 3.3 kg/m3 and the mass density (x1 = 0.9489) was 1119.68 ± 3.3 kg/m3. It also gave a mass density (x1 = 0.9569) of 1119.39 ± 3.3 kg/m3, a mass density (x1 = 0.9782) of 1119.48 ± 3.3 kg/m3 and a mass density (x1 = 1) of 1119.59 ± 3 kg/m3.
